Patent publication US7629317B2, “Control of growth and repair of gastro-intestinal tissues by gastrokines and inhibitors” (The University of Chicago, priority 2001, dated 2009)
“Also recorded” adds a separate entry of the source. Like-named read-outs stand apart in the source and are kept apart here.

Columns and labels:
IEC-18 cells = assay: Growth of confluent cultures of IEC-18 cells (cell count); type: cell-based, rat; details: for EC50: read-out: half-maximal concentration (K1/2) for growth stimulation
Description: Confluent cultures of IEC-18 cells were prepared. One day later, medium was aspirated and replaced with 5 ml of DMEM containing CS (0.5%) and insulin, without (control) or with mitogenic peptide 58-99 (8 μg/ml). Sister plates receiving 1 ml medium and different amounts of peptide 67-85 were incubated at 1 hr at 38° C. on a CO2 incubator, and then an additional 4 ml of medium was added to each dish. Peptide 58-99 was added to 2 of the 4-sister plates at each concentration of peptide 67-85, and the number of cells was counted. […] Stimulation of cell growth by mitogenic peptide 58-99 was completely abolished by preincubation of cells with 0.25 μg/ml of peptide 67-85. […] Values for the number of cells per culture are shown relative to multiplication of cells exposed to the vehicle during the same period.
Urea (6 M) was employed to release proteins from the insoluble fraction solubilize rhAMP-18 containing the His6-tag (SEQ ID NO: 16), and make it available to bind to the Ni^2+-charged resin from which it was subsequently eluted with a gradient of imidazole (0 to 200 mM). The amount of eluted rhAMP-18 was measured using the BCA assay, and the appearance of a single band at the predicted size of 19-20 kD was confirmed by SDS-PAGE followed by immunoblotting. To determine if eluted rhAMP-18 renatured to assume a structure that was mitogenic, aliquots of the eluate (following removal of urea and imidazole by dialysis) were added to cultures of IEC-18 cells and the number of cells was counted 4 days later. […] AMP peptide 77-97 refers to the mature protein; same as peptide 97-117 of human precursor protein: Table 1. These observations indicate that biologically active recombinant human AMP-18 that can be utilized in diverse clinical situations is available. The mitogenic potency of rhAMP-18 is in the nanomolar range which would be expected for a native gastric cell growth factor that participates in the maintenance and repair of the stomach in vivo.
(§1) To characterize the capacity of gastric and intestinal cells to respond to AMP-18, AGS gastric adenocarcinoma cells, HAE human gastric antrum mucosa primary cultures transformed with SV40 large T antigen, rat diploid small intestinal epithelial cells of the IEC-6 (FIG. 15) and IEC-18 lines, NCI N-87 gastric carcinoma cells, and SK-GT5 gastroesophageal adenocarcinoma cells were studied; human WI-38 fibroblasts and HeLa cells served as non-GI control cell lines. Mitogenesis was assayed by performing cell counts 3 to 4 days after exposing cells to the agent of interest, trypsinizing the culture to prepare single cells, and confirming this while counting them in a hemocytometer.

AGS cells = assay: Growth of gastric epithelial AGS cells (cell count four days later); type: cell-based, human; details: peptide 77-97 8 μg/ml, EGF 50 ng/ml at saturating doses
Description: as §1

IEC-6 cells = assay: Growth of intestinal epithelial IEC-6 cells (cell count); type: cell-based, rat
Description: IEC-6 cells were grown in 60-mm dishes. […] Values are means±SE for 3 cultures.
as §1

HAE cells [1] = assay: Growth of human antrum epithelial (HAE) cells (cell count 4 days later); type: cell-based; details: peptide 77-97 8 μg/ml, EGF 50 ng/ml, 4 days
Description: (§2) To measure growth (left panel), HAE cells were plated in 60-mm dishes. Peptide 77-97 (8 μg/ml), or EGF (50 ng/ml), or both were added to the medium and the number of cells counted 4 days later. […] Values are means±SE for 3 cultures. To measure migration (right panel), cells were grown in 60-mm dishes to prepare a confluent monolayer. The medium was aspirated and replaced with fresh medium containing 0.01% calf serum (CS). The monolayer was mechanically wounded by scraping with a razor blade. Detached cells were removed by aspirating medium, and rinsing the remaining cells twice with fresh medium containing 0.01% CS. Fresh medium (5 ml) containing CS (0.01%) and insulin (100 U/L) was added to wounded cultures. Either peptide 77-97 (8 μg/ml), EGF (50 ng/ml), or both were added to duplicate cultures. Migration was assessed at 24, 48 and 72 hr after wounding by measuring the distance (in mm) that cells had migrated from the wound edge using a microscope eyepiece reticle (10-mm long; 0.1-mm markings). Migrating cells at 12 randomly chosen sites along a 0.25-mm stretch of the wound edge were measured at 40-fold magnification. Migration at 2 different sites was measured for each of 2 separate wounds made in each culture. Values are the mean distance cells moved into the denuded area from the edge of 4 different wounds in 2 cultures±SE.
as §1

HAE cells [2] = assay: Wound restitution (migration) of scrape-wounded HAE cell monolayers; type: cell-based, human; details: peptide 8 μg/ml, EGF 50 ng/ml; 24-72 hr
Description: as §2
Confluent monolayer cultures were mechanically wounded by scraping with a razor blade, and the distance that cells migrated from the wound edge was measured using a microscope eyepiece reticle.

MDCK cells = assay: Transepithelial electrical resistance (TER) of MDCK cell monolayers; type: cell-based; details: monochloramine 0.1 mM, 90 min; EGF 50 ng/ml
Description: Monolayer cultures of MDCK cells were grown on permeable polycarbonate filters (0.4-μm pore size) (Transell) in DMEM containing FBS (2%) without (control) or with peptide 77-97 (8 μg/ml) for 8 days. TER was measured 24 hr after the cells were plated, and at specified times thereafter using an epithelial volt-ohm meter (EVOM, Millipore). Following each measurement, medium containing FBS without or with peptide was changed (0, 48, and 144 hr), and additional peptide 77-97 (8 μg/ml) was added at 30 and 72 hr. At 72 hr, TER in cultures that received peptide 77-97 was twice as high as in control cultures. Values are means for 3 cultures; variance is <10% of the mean. TER was measured from 3 different areas on the filter.
(§3) Panel A: When a stable TER was reached (330 Ω·cm^2) in MDCK cell monolayers the medium was changed to DMEM containing FBS (0.2%), and either peptide 77-97 (8 μg/ml) or EGF (50 ng/ml). After 18 hr, peptide 77-97 or EGF were added to the specified wells. One hour later monochloramine (0.1 mM), like the other agents, was added to the apical and basal compartments of the Transwell. […] Panels B, C: Caco2/bbe (C2) subclone monolayers were grown on collagen-coated polycarbonate filters until a stable TER was reached (225 Ω·cm^2). Spent medium was replaced with fresh medium containing FBS (0.1%) alone or with peptide 77-97 (8 μg/ml). After 18 hr, monochloramine (0.3 mM, B) or indomethacin (0.1 mM, C) was added to both compartments of the Transwell. At time 0, cultures received either vehicle (control), vehicle plus oxidant or indomethacin, or peptide 77-97 and oxidant or indomethacin. TER of injured cultures treated with vehicle decreased by ˜35% at 90 min, whereas peptide-treated cultures declined ˜10%.

[3] = tested on: occludin, ZO-1, ZO-2, claudin-5, E-cadherin, JAM; assay: Accumulation of tight and adherens junction proteins in C2 cells (immunoblot of insoluble fraction, confocal microscopy); type: cell-based, human; details: 8 hr
Description: To find out how the peptide exerts its cytoprotective effect, C2 cell monolayers were treated with AMP peptide, and oxidant injury was induced with monochloramine 18 hours later. Changes in the levels of specific tight junction (TJ) proteins were checked. Cells were lysed, and proteins of the insoluble/particulate fraction were studied by immunoblotting. […] This observation represents the first evidence that AMP peptide enhances accumulation of specific TJ proteins in colonic epithelial cells. […] To carry out this experiment, C2 cells were exposed to AMP peptide for different periods of time, the NP-40-insoluble fraction was obtained, Western blots were prepared, and the amount of each immunoreactive protein was quantified. A 65% increase in immunoreactivity of each protein compared to control was detected for occludin after 2 hr, and for ZO-1 at 8 hr. Hsc73, which is constitutively expressed in these cells, was not altered by exposure to AMP peptide for up to 18 hr.
Confluent monolayers of C2 cells were treated with AMP peptide or vehicle for 8 hr. Cells were then collected, proteins in the NP-40-insoluble fraction were separated by SDS-PAGE, immunoblots were prepared, and the relative amounts of immunoreactive proteins were compared by densitometric analysis. […] These changes appear relatively specific for occludin, ZO-1, ZO-2, claudin-5, E-cadherin, and JAM because they were not observed for several other proteins localized in the TJ (claudin-1, claudin-2), adherens junction (β-catenin), plasma membrane (Na-K-2Cl cotransporter, α or β subunit of Na-K-ATPase), or cytosol (Rho A, hsc73).
To better understand the mechanism(s) by which AMP peptide enhances accumulation of TJ-associated proteins, experiments were performed to determine whether the peptide exerted its effect at the apical or basolateral surface of C2 cells. Monolayers of C2 cells were grown on Transwell filters, AMP peptide (8:g/ml) was added to the apical or basolateral compartment of the Transwell, and cells were harvested 8 hr later. The NP-40-insoluble fraction was obtained, its proteins separated, and immunoblots were prepared.

NCI N-87 cells = assay: Growth of NCI N-87 gastric carcinoma cells; type: cell-based; details: concentration-dependent
Description: as §1

SK-GT5 cells = assay: Growth of SK-GT5 gastroesophageal adenocarcinoma cells; type: cell-based; details: concentration-dependent
Description: as §1

Caco2/bbe (C2) cells = assay: Transepithelial electrical resistance (TER) of Caco2/bbe (C2) cell monolayers after injury; type: cell-based, human; details: monochloramine 0.3 mM, 45 min; rhAMP-18 100 nanomolar or peptide 3.7 micromolar pre-treatment; oxidant alone ~35%
Description: as §3
C2 cell monolayers were grown in DMEM containing FBS (5%) and transferrin (10 μg/ml) on collagen-coated polycarbonate filters until a stable TER was reached (225 Ωcm^2). At time 0, cells were exposed to no DSS (control), or DSS (4%) in the upper compartment of the Transwell. AMP peptide 77-97 (8 μg/ml) was added to the upper and lower compartments of the Transwell 1 day prior to the addition of DSS at time 0. TER of DSS-injured cultures treated with vehicle decreased by ˜70% at 45 min, whereas peptide-treated cultures declined ˜10% at that time. […] Values are means for ≧6 cultures.
Confluent C2 cell monolayers were prepared on Transwells until a stable TER was established. Medium was replaced with fresh medium containing FBS (0.1%) alone (control), or with either rhAMP-18 (100 nanomolar) or peptide 77-97 (3.7 micromolar). After 18 hr, monochloramine (0.3 mM) was added to both compartments of the Transwell, and cultures received either vehicle (control), vehicle plus oxidant, rhAMP-18 and oxidant, or peptide 77-97 and oxidant, after which TER was measured.
To determine whether AMP peptide could speed recovery of TER after DSS-induced colonic cell injury, a highly sought-after functional characteristic of an agent designed to treat IBD, C2 cell monolayers were exposed to DSS (5%) for 10 min which reduced TER to 33±6% of the control value (FIG. 29, left panel). DSS was removed by aspirating the medium and replacing it with fresh medium. AMP peptide 77-97 (8 μg/ml) or vehicle was added to the culture medium, and TER was measured 18 hr later. In the presence of the vehicle, TER increased from 33% to 66±7% of the control value, whereas cells exposed to AMP peptide reached a value 112±4% of control.
To determine if the cytoprotective effect of AMP peptide is mediated at the level of the actin cytoskeleton, C2 cell monolayers were exposed to cytochalasin D, an agent known to disrupt actin filaments and compromise barrier function (Madara et al., 1986).
To determine if AMP peptide could play a cytoprotective role in GDS, a study was carried out in C2 cell monolayers that were exposed to the PA-I lectin. […] Next the effect of AMP peptide was studied in the mouse model of P. aeruginosa-induced-GDS (Laughlin et al., 2000) using female Balb/c mice subjected to 30% hepatectomy, injection of a solution of living P. aeruginosa into the cecum, and food deprivation postoperatively. All 8 of the mice survived surgery.

[4] = tested on: stomach and intestinal epithelial cells; assay: Concentrations at which gastric peptide mediators exert their effects in culture; type: cell-based

Molecule	increase in cell number (IEC-18 cells; 3 days, peptide 58-99 8 μg/ml, EGF 50 ng/ml, vehicle 290%)	growth stimulation of AGS cells (in words) (AGS cells)	growth stimulation of IEC-6 cells (in words) (IEC-6 cells)	proliferation of HAE cells (in words) (HAE cells [1])	migration from the wound edge compared with vehicle (HAE cells [2])	loss of TER after oxidant exposure (MDCK cells)	accumulation of occludin and ZO-1 (specificity) ([3]; peptides 8 μg/ml, EGF 50 ng/ml)	growth of NCI N-87 cells (NCI N-87 cells)	growth of SK-GT5 cells (SK-GT5 cells)	concentration of maximal mitogenic effect (IEC-18 cells; FIG. 18)	growth stimulation of IEC-18 cells (in words) (IEC-18 cells; added alone, peptides up to 8 μg/ml)	EC50 (IEC-18 cells; confluent IEC-18 cultures, FIG. 13)	EC50 (IEC-18 cells; recently purified rhAMP-18, FIG. 18)	decline in TER after monochloramine (Caco2/bbe (C2) cells)	immunoreactive ZO-1 and occludin versus vehicle-treated cells ([3]; 100 nanomolar, laser densitometry)	concentrations at which physiological effects can occur [4]
EGF: polypeptide mitogen used for comparison at 50 ng/ml [reference compound]	402%	stimulated growth; also recorded: mitogenic	stimulated	stimulated proliferation	stimulated cell movement	35-40%	not replicated	stimulated	stimulated							
rhAMP-18: recombinant human AMP-18 with N-terminal His6-tag replacing the signal peptide, expressed in E. coli (SEQ ID NO: 27) (protein, N-terminal His6 tag) MRGSHHHHHHGSNYNIDVNDDNNNAGSGQQSVSVNNEHNVANVDNNNGWDSWNSIWDYGNGFAATRLFQKKTCIVHKMKKEVMPSIQSLDALVKEKKLQGKGPGGPPPKGLMYSVNPNKVDDLSKFGKNIANMCRGIPTYMAEEMQEASLFFYSGTCYTTSVLWIVDISFCGDTVEN										5 nM	stimulates cell proliferation to the same maximal extent	~30 nM	~5 nM	~10%	about two-fold	< 50 nM
